# “And” between values parts separate entries of the source, which are not always exact repeats. Equal entries are not always repeated. “Also recorded” adds a separate entry of the source.
# Legend:
# [1] = system: IgM in human heart biopsies; assay: Displacement (elution) of IgM from human heart transplant biopsies; format: binding; conditions: for removal of IgM from heart biopsies by incubation: PC 50 mM, CRP 2.58 mg/ml, albumin 1 mg/ml; for vascular IgM in biopsy after incubation (immunohistochemistry): displacement experiments; for IgM anti-PC in biopsy eluates (ELISA): eluates after incubation of biopsies; for IgM in western blots of biopsy eluates: following incubation of biopsies
# Procedure: To verify if the IgM removed from the heart biopsies is PC-specific, ELISA was performed.
# One hundred and seventy-two (172) adult heart transplant patients (having a number of serial biopsies per patient in first three months post-transplant) were followed for several years and subsequently analyzed. CAV was diagnosed with serial angiographies for each patient. The percentage of microvascular IgM was quantified with double staining (IgM/CD31 or Ulex europaeus lectin). IgM and IgM anti-phosphorylcholine (PC) from biopsy eluates were determined with immunoblotting and enzyme-linked immunosorbent assays (ELISAs). Statistical analyses used univariate logistic regression, multivariate stepwise models, and Kaplan-Meier curves for different tertile groups.
# IgM anti-PC NAbs = assay: PC-KLH immunization of mice, serum IgM anti-PC by ELISA; format: in vivo
# Source text: In group 1, normal C57BL/6 mice (IgG+IgM producers) were immunized by PC-keyhole limpet hemocyanin (PC-KLH) to induce anti-PC NAb production. In group 2, IgM-deficient mice that have impaired IgM antibody production, but still have an IgG response were immunized.
# As controls for PC immunization, mice of the same genotypes were vaccinated with KLH. These procedures define the conditions of a 2×2 factorial design, as depicted in Table 1, with 2 immunization conditions (PC or KLH), and 2 mouse genotypes (normal C57BL/6 and IgM-deficient). Eight weeks after immunization, all mice were euthanized by CO2 inhalation. Mouse sera from these animals was subsequently used to conduct the two in vitro studies. Additionally, the mouse serum IgM-anti-PC was analyzed using custom ELISA. Specifically, to establish the inflammatory milieu in the mouse sera used for the in vitro experiments, the sera was analyzed for pro-inflammatory TNF-α, IFN-γ, IL-1β, IL-6, IL-12 and anti-inflammatory IL-10 IL-4, IL-13, and TGF-β cytokines (SearchLight Multiplex Assay System, Aushom Biosystems).
# cardiac allograft = assay: Heterotopic heart transplant model of CAV with PC vaccination; format: in vivo, mice; conditions: mouse model of heart transplantation
# Procedure: In addition to the mechanisms underlying MΦ differentiation and the effect of NAbs thereon, it is also important to identify what artheroprotective effect (if any) a PC vaccination may have in vivo. In an attempt to determine if experimental induction of IgM anti-PC NAbs have a beneficial effect on graft rejection and survival, experiments were conducted in an in vivo heart transplant model to measure such antibodies' affect on CAV and graft survival. Specifically, heart transplants and experimental vaccination were performed in normal mice (C57BL/6) and in IgM-deficient mice. Thereafter, IgM antibody response was measured, and a determination made as to what (if any) effect the vaccination had on graft survival.
# The study used a 2×3 factorial design to test the (a) main effect of immunization defined by 3 conditions: experimental vaccination vs. negative control (vaccination with KLH vehicle) vs. positive control (intra-peritoneal mouse polyclonal IgM); and (b) main effect of mouse genotype—normal C57BL/6 vs. IgM-deficient mice—on cardiac graft rejection (see Table 2). […]
# All mice underwent heart transplantation at 16 weeks of age, 8 weeks after initial vaccination. […] Cardiac allograft viability was thereafter assessed by daily abdominal palpation. […]
# Graft survival curves were calculated in accordance with the Kaplan-Meier method. […]
# [2] = system: human aortic and microvascular endothelial cells; assay: Incubation of cultured endothelial cells with CRP (cell activation); format: cell-based; conditions: incubation with CRP vs controls without CRP
# Source text: Additionally, note the absence of ICAM-1 (subpart A of FIG. 7) and NF-κB nuclear expression (subpart C of FIG. 7) in the controls that lacked CRP exposure.
Compound,removal of IgM from heart biopsies by incubation [1],vascular IgM in biopsy after incubation (immunohistochemistry) [1],IgM anti-PC in biopsy eluates (ELISA) [1],IgM in western blots of biopsy eluates [1],production of specific IgM anti-PC NAbs (IgM anti-PC NAbs),graft survival (cardiac allograft),ICAM-1 expression [2],NF-κB nuclear localization [2]
"C[N+](C)(C)CCOP(=O)(O)O [PC, phosphorylcholine]",removed IgM from the biopsies; also recorded: can be removed,removal of IgM; also recorded: showed biopsy removal,56.67±19.96 U/ml and 56.7±20.0 U/ml,showed IgM,induced the production of specific IgM anti-PC NAbs,positive effect on graft survival,–,–
"CRP: C-reactive protein, pro-inflammatory molecule",removed IgM from the biopsies; also recorded: can be removed,removal of IgM; also recorded: showed biopsy removal,60.49±18.26 U/ml and 60.5±18.3 U/ml,showed IgM,–,–,increased ICAM-1 expression,nuclear factor-kappa B (NF-κB) nuclear localization

# — patent publication US11065319B2, “Methods for diagnosing and reducing incidences of cardiac allograft rejection” (3DT Holdings, LLC, priority 2014, dated 2021)
